Laboratory results as given in patent US20140093598A1, “COMPOUNDS AND EXTRACTS FROM GNETUM AFRICANUM AND ANTI-INFLAMMATORY ACTIVITY RELATED THERETO” (PHARMAFRI-CAN INC., priority 2010, published 2014).
Read-outs that look alike come from different tables or passages of the source.

Tests used:
[1] = tested on: LPS induced TNF-α production in RAW 264.7 cells; test: LPS-induced TNF-α production in RAW 264.7 cells, ELISA of culture supernatants; type: cell-based; details: for IC50: Mus musculus, RAW264.7
Experimental: Cell culture supernatants were used for the determination of TNF-α production by ELISA (R&D systems).
RAW 264.7 cells were treated with G. africanum leaf and stem extracts (200 μg/ml) for 1 hour and were then induced with LPS (10 μg/ml) for 18 hr. Cell culture supernatants were used for the determination of TNF-α production by ELISA (R&D systems).
Methanol, ethyl acetate and 95% ethanol stem extracts were further analyzed in a dose dependent manner (25-200 μg/ml).

[2] = tested on: LPS induced TNF-α production in RAW 264.7 cells; details: reported by Iyori et al. 2008; cited from earlier work

With `Oc1ccc(/C=C/c2cc(O)cc(O)c2)cc1` [resveratrol, (E)-5-(4-hydroxystyryl)benzene-1,3-diol] the IC50 ([1]; resveratrol 1 μM-100 μM, 1 hour pre-treatment, LPS 10 μg/ml for 18 hr, read-out: IC50, anti-inflammatory activity of resveratrol (FIG. 3)) was 50 µM, the IC50 ([1]; same value as 50 μM, restated in μg/ml, read-out: IC50, anti-inflammatory activity of resveratrol (FIG. 3), expressed by mass) was 12 µg/mL and the “Inhibition of LPS-induced TNF-α production” value ([1]; resveratrol at 50 μM and 100 μM, FIG. 3A) was “inhibited LPS-induced TNF-α production”. The “Inhibition of LPS induced TNF-α production” value [2] was “could inhibit LPS induced TNF-α production”.
